Data: patent US10934255B2, “Nrf and HIF activators/HDAC inhibitors and therapeutic methods using the same” (THE BOARD OF TRUSTEES OF THE UNIVERSITY OF ILLINOIS, priority 2017, dated 2021)
Where two headings read alike, the source gives them in different places.

How the values were obtained:
Human HDAC1 = molecular target: T1, Human HDAC1 (Homo sapiens, UniProt Q13547); assay: HDAC1 inhibition assay (fluorogenic p53 peptide substrate); assay type: biochemical
T1 construct: Full length with C-terminal GST tag, MW=79.9 kDa; GST (C); host or cells: Sf9 insect cells (baculovirus)
Protocol: The HDAC1, 2, 4, 5, 6, 7, 8, 9, 10, and 11 assays used isolated recombinant human protein; HDAC3/NcoR2 complex was used for the HDAC3 assay. Substrate for HDAC1, 2, 3, 6, 10, and 11 assays is a fluorogenic peptide from p53 residues 379-382 (RHKKAc); substrate for HDAC8 is fluorogenic diacyl peptide based on residues 379-382 of p53 (RHKAcKAc). Acetyl-Lys(trifluoroacetyl)-AMC substrate was used for HDAC4, 5, 7, and 9 assays. Compounds were dissolved in DMSO and tested in 10-dose IC50 mode with 3-fold serial dilution starting at 30 μM. Control Compound Trichostatin A (TSA) was tested in a 10-dose IC50 with 3-fold serial dilution starting at 5 μM. IC50 values were extracted by curve-fitting the dose/response slopes. Assays were performed in duplicate and IC50 values are an average of data from both experiments.
Human HDAC1 (GenBank Accession No. NM_004964): Full length with C-terminal GST tag, MW=79.9 kDa, expressed by baculovirus expression system in Sf9 cells. Enzyme is in 50 mM Tris-HCl, pH 8.0, 138 mM NaCl, 20 mM glutathione, and 10% glycerol, and stable for >6 months at −80° C. Purity is >10% by SDS-PAGE. Specific Activity is 20 U/μg, where one U=1 pmol/min under assay condition of 25 mM Tris/Cl, pH8.0, 137 mM NaCl, 2.7 mM KCl, 1 mM MgCl2, 0.1 mg/ml BSA, 100 μM HDAC substrate, and 13.2 ng/μl HDAC1, incubation for 30 min at 30° C.
Substrate for HDAC1 and HDAC6: Acetylated peptide substrate for HDAC, based on residues 379-382 of p53 (Arg-His-Lys-Lys(Ac)), a site of regulatory acetylation by the p300 and CBP acetyltransferases (lysines 381, 382)1-6, is the best for HDAC from among a panel of substrates patterned on p53, histone H3 and histone H4 acetylation sites7.
Reaction Buffer: 50 mM Tris-HCl, pH 8.0, 137 mM NaCl, 2.7 mM KCl, 1 mM MgCl2, 1 mg/ml BSA.
HDAC1: 75 nM HDAC1 and 50 μM HDAC substrate are in the reaction buffer and 1% DMSO final. Incubate for 2 hours at 30° C.
All IC50 values are automatically calculated using the GraphPad Prism version 5 and Equation of Sigmoidal dose-response (variable slope): Y=Bottom+(Top−Bottom)/(1+10^((Log EC50−X)*HillSlope)), where X is the logarithm of concentration, Y is the response, Y starts at Bottom and goes to Top with a sigmoid shape. In most cases, “Bottom” is set 0, and “Top” is set “less than 120%”. This is identical to the “four parameter logistic equation”. IC50 curves also are drawn using the GraphPad Prism, and IC50 values and Hill slopes are provided.
HDAC Activity Assays: HDAC assay is performed using fluorescently-labeled acetylated substrate, which comprises an acetylated lysine side chain. After incubation with HDAC, deacetylation of the substrate sensitizes the substrate such that, in a second step, treatment with the detection enzyme produces a fluorophore. HDACs 1 and 6 were expressed as full length fusion proteins. Purified proteins were incubated with 50 μM fluorescently-labeled acetylated peptide substrate and test compound for 2 hours at RT in HDAC assay buffer containing 50 mM Tris-HCl (pH 8.0), 137 mM NaCl, 2.7 mM KCl, 1 mM MgCl2, 1% DMSO, and 1% BSA.
Reactions were terminated by the addition of the Developer after 2 hours, and the development of fluorescence signal, which was relative to the amount of deacetylated peptide, was monitored by time-course measurement of EnVision (PerkinElmer). The HDAC activity was estimated from the slope of time-course measurement of the fluorescence intensity. The slope of no-enzyme control (substrate alone) was served as background, and % Enzyme activity was calculated using background-subtracted slope of no inhibitor control (DMSO) as 100% activity.

HIF-1α = assay: HIF1 activation, ODD reporter assay; assay type: cell-based; conditions: measured at 10 μM
Protocol: (§1) The present compounds were evaluated for an ability to activate Nrf2 and HIF-1α. Table 1 summarizes Nrf2 activation data obtained in Neh2-luc reporter assay; and HIF1 activation measured in ODD reporter assay.

Nrf2 = Nrf2 activation, Neh2-luc reporter assay; assay type: cell-based; conditions: measured at 10 μM
Protocol: as §1

[1] = Table 1, performed by Reaction Biology Corporation, read-out: HDAC isoform IC50 (nM) 1
[2] = Table 2 isoform selectivity, read-out: HDAC Inhibition (IC50 uM) isoform 1

T1 sequence (Q13547 whole entry): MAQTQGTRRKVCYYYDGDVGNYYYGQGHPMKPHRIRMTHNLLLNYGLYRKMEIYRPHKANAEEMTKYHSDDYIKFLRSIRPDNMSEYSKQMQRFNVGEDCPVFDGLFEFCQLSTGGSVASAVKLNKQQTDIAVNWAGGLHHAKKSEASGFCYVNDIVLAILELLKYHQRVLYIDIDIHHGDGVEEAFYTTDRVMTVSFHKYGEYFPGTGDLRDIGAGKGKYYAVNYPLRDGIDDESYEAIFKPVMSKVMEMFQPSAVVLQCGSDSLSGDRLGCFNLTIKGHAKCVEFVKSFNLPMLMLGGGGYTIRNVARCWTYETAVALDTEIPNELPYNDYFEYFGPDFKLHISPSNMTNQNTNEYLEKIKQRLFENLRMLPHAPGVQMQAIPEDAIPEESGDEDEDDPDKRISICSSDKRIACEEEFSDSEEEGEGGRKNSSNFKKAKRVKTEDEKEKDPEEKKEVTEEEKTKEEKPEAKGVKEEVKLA

| SMILES | IC50 (Human HDAC1; [1]) [nM] | IC50 (Human HDAC1; [2]) [nM] | fold induction at 10 µM (HIF-1α) | fold induction at 10 µM (Nrf2) |
| --- | --- | --- | --- | --- |
| O=C(NO)c1ccc(CN2CCc3ccc(Cl)cc32)cc1 [II-ING-6, 4-((6-Chloroindolin-1-yl)methyl)-N-hydroxybenzamide] | 5580 | 3770 | 7.5 | 5.6 |
| Cn1c(NCc2ccc(C(=O)NO)cc2)nc2ccccc21 [II-ING-13, N-Hydroxy-4-(((1-methyl-1H-benzo[d]imidazol-2-yl)amino)methyl)benzamide] | 2630 | 2550 | 2.6 | 1.8 |
| O=C(NO)c1ccc(CN2CCc3cc(Cl)ccc32)cc1 [II-ING-39, 4-((5-Chloroindolin-1-yl)methyl)-N-hydroxybenzamide] | 12700 |  | 7 | 6.5 |
| O=C(NO)c1ccc(CN2CCc3ccc(F)cc32)cc1 [II-ING-41, 4-((6-Fluoroindolin-1-yl)methyl)-N-hydroxybenzamide] | 11800 | 3670 | 3.6 | 7.8 |
| O=C(NO)c1ccc(CN2CCc3cc(F)ccc32)cc1 [II-ING-42, 4-((5-Fluoroindolin-1-yl)methyl)-N-hydroxybenzamide] | 20000 |  | 1.4 | 7.7 |
| O=C(NO)c1ccc(CN2CCc3ccccc32)cc1 [II-ING-44, N-Hydroxy-4-(indolin-1-ylmethyl)benzamide] | 17600 |  | 1.4 | 2.3 |
| COc1ccc2c(c1)CCN2Cc1ccc(C(=O)NO)cc1 [II-ING-49, N-Hydroxy-4-((5-methoxyindolin-1-yl)methyl)benzamide] | 4950 |  | 1 | 2.4 |
| O=C(NO)c1ccc(CN2C(=O)C(F)(F)c3ccccc32)cc1 [II-ING-66, 4-((3,3-Difluoro-2-oxoindolin-1-yl)methyl)-N-hydroxybenzamide] | 3550 |  | 5.6 | 9.9 |
